The text below walks through data of patent US11071726B2, “Treating gastric cancer using combination therapies comprising liposomal irinotecan, oxaliplatin, 5-fluorouracil (and leucovorin)” (Ipsen Biopharm Ltd., priority 2016, dated 2021).

The target in data set [1] is T1, Topoisomerase I (Homo sapiens, UniProt P11387).
T1 sequence (P11387 1-765): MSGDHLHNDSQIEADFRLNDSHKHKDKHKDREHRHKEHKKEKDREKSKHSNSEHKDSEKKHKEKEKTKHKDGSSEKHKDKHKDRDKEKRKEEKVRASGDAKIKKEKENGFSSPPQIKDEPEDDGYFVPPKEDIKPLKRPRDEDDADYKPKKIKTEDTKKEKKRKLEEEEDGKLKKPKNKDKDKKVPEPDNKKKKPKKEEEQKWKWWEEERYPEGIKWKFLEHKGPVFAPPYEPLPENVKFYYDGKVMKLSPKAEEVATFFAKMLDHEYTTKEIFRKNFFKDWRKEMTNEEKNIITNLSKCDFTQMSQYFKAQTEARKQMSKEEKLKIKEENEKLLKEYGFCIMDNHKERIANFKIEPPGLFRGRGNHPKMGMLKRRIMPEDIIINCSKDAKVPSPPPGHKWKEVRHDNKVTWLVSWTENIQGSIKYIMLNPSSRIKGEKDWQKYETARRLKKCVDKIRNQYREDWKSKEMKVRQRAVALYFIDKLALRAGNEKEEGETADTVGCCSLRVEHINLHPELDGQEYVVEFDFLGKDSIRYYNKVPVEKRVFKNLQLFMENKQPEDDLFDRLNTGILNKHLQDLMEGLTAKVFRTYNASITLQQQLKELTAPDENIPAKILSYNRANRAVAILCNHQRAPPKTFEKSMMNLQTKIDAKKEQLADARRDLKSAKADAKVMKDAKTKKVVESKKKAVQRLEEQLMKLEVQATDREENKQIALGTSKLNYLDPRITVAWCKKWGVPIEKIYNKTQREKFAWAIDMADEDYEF
To be noted: metabolite formed by nonspecific carboxylesterases; cited from earlier work.

For data set [2] the following is noted: single-agent irinotecan 350 mg/m^2 once every-3-weeks, cited from earlier work.
The conditions of data set [3]: cited from earlier work.
For data set [4] the following is noted: human, in vivo.

Like-named read-outs stand apart in the source and are kept apart here.

Regarding `CCc1c2c(nc3ccc(O)cc13)-c1cc3c(c(=O)n1C2)COC(=O)[C@]3(O)CC` [SN-38], the “activity relative to irinotecan” value in data set [1] was 100-1000 fold.

Take `CCc1c2c(nc3ccc(OC(=O)N4CCC(N5CCCCC5)CC4)cc13)-c1cc3c(c(=O)n1C2)COC(=O)[C@]3(O)CC` [irinotecan, (S)-4,11-diethyl-3,4,12,14-tetrahydro-4-hydroxy-3,14-dioxo1H-pyrano[3′,4′:6,7]-indolizino[1,2-b]quinolin-9-yl-[1,4′bipiperidine]-1′-carboxylate]: the “incidence of grade 4 neutropenia” value in data set [2] (patients heterozygous (UGT1A1 6/7 genotype)) was 12.5%; in data set [2] (patients homozygous for the UGT1A1*28 allele), at most 50%. Also, the “grade 4 neutropenia” value in data set [2] (patients homozygous for the wild-type allele (UGT1A1 6/6 genotype)) is given as “no grade 4 neutropenia was observed”.

For FOLFIRINOX, the “incidence of most common Grade 3-4 adverse events (neutropenia, fatigue, vomiting, diarrhea, thrombocytopenia, sensory neuropathy, anemia, elevated ALT, thromboembolism, febrile neutropenia)” value in data set [3] (Phase 3 study of the FOLFIRINOX combination) is on record as at least 5%. Further, the toxicity entry in data set [3] (first-line treatment) is reported as “significant toxicity”.

For “irinotecan sucrose octasulfate salt liposome injection [MM-398]”, in data set [4], the “consecutive doses of dose level 1 received by any patient” value was at most 2; the “patients administered dose level 1 on day 15 of cycle 1” value is 3; the “patients administered dose level −1 on days 1 and 15 of cycle 1” value amounted to 6.
